Results on 21 compounds are retold here after patent US20240352021A1 (DANA-FARBER CANCER INSTITUTE, INC., priority 2021, published 2024).

Test [1] addresses EGFR L858R/C797S Ba/F3 cells (Homo sapiens, UniProt P00533, C797S/L858R, cells depend on it). Description: Ba/F3 cell proliferation (Cell Titer Glo), EGFR L858R/C797S. The format is cell-based, murine. To be noted: 72 hours, Table 6. The source says: (§1) The EGFR mutant L858R Ba/F3 cells have been previously described (Zhou, W., et al. Nature 462, 2009, 1070-1074). The EGFR C797S and C775S mutations were introduced via site directed mutagenesis using the Quick Change Site-Directed Mutagenesis kit into a vector containing EGFR L858R mutation (Stratagene; La Jolla, CA) according to the manufacturer's instructions. All constructs were confirmed by DNA sequencing. The constructs were then shuttled into the retroviral vector JP1540 by either using the Cre-recombination system (Agilent Technologies, Santa Clara, CA) or the In-fusion HD Cloning kit (Takara Bio USA, Inc.; Mountain view, CA). Ba/F3 cells were then infected with retrovirus per standard protocols, as described previously (Zhou, et al, Nature 2009). Stable clones were obtained by selection in puromycin (2 μg/ml). All BaF/3 mutant cells were maintained in RPMI 1640 (Cellgro; Mediatech Inc., Herndon, CA) supplemented with 10% FBS, 100 units/mL penicillin, 100 units/mL streptomycin.
(§2) Growth and inhibition of growth was assessed by the Cell Titer Glo assay (Promega, Madison, WI) and was performed according to the manufacturer's instructions. The Cell Titer Glo assay is a luminescence-based method used to determine the number of viable cells based on quantitation of the ATP present, which is directly proportional to the amount of metabolically active cells present. Ba/F3 cells of different EGFR genotypes were exposed to compounds for 72 hours and the number of cells used per experiment was determined empirically as has been previously established (Zhou, et al., Nature 2009). All experimental points were set up in triplicates in 384-well plates. […] The curves were fitted using a non-linear regression model with a sigmoidal dose response.
(§3) Ba/F3 cells assay data are provided below in Table 5 and Table 6. For inhibitory activity against EGFR mutants, the following designations are used: <0.1 μM=A, 0.1 μM˜0.5 μM=B, 0.5 μM˜2.5 μM=C, ≥2.5 μM=D
(In ATP-based viability assays light output follows the ATP content of the culture.)

Test [2] has as its target EGFR L858R/T790M (Homo sapiens, UniProt P00533, L858R/T790M). Briefly: EGFR biochemical assay (headed HTRF-based; method describes Z'-LYTE), L858R/T790M. To be noted: Table 4. The protocol: (§4) To measure the IC50 values of compounds herein against EGFR, a Z′-LYTE assay (ThermoFisher) was used. Briefly, 2.5 μL of different concentrations of the compounds in 4% DMSO were added to 5 μL kinase/peptide mixture in each well of a 384-well plate (Corning Cat. #3676). 2.5 μL of 4× ATP solution (4× ATP, 50 mM HEPES, pH 7.5, 0.01% BRIJ-35, 10 mM MgCl2, 1 mM EGTA) were added to each well. The plate was shaken for 30 seconds, and then incubated at room temperature for 60 minutes. 5 μL of a 1:100000 dilution of Development Reagent A was added to each well. The plate was then incubated for 60 mins at room temperature. 5 μL of the stop reagent was then added. The plate was subsequently read on a fluorescence plate reader, and the emissions ratio was calculated to determine the ratio of Ser/Thr 07 phosphorylated by the reaction. Emissions Ratio═Coumarin Emission (443 nm)/Flourescein Emission (520 nm).
(§5) HTRF-based EGFR assay data are provided below in Table 4.
On the technique in general: TR-FRET usually uses a lanthanide donor and a delayed reading to cut background.

Test [3] concerns the target EGFR mutant L858R Ba/F3 cells (Homo sapiens, UniProt P00533, L858R, cells depend on it). Description: Ba/F3 cell proliferation (Cell Titer Glo), EGFR L858R. The format is cell-based, murine. The settings on record: 72 hours, Table 6, read-out: L858R BaF3.
Description: as §1, §2, §3

The target in test [4] is EGFR L858R (Homo sapiens, UniProt P00533, L858R). Briefly: EGFR biochemical assay (headed HTRF-based; method describes Z'-LYTE), L858R. The settings on record: Table 4. The protocol: as §4, §5
EGFR L858R, sequence (P00533 25-1210 L858R): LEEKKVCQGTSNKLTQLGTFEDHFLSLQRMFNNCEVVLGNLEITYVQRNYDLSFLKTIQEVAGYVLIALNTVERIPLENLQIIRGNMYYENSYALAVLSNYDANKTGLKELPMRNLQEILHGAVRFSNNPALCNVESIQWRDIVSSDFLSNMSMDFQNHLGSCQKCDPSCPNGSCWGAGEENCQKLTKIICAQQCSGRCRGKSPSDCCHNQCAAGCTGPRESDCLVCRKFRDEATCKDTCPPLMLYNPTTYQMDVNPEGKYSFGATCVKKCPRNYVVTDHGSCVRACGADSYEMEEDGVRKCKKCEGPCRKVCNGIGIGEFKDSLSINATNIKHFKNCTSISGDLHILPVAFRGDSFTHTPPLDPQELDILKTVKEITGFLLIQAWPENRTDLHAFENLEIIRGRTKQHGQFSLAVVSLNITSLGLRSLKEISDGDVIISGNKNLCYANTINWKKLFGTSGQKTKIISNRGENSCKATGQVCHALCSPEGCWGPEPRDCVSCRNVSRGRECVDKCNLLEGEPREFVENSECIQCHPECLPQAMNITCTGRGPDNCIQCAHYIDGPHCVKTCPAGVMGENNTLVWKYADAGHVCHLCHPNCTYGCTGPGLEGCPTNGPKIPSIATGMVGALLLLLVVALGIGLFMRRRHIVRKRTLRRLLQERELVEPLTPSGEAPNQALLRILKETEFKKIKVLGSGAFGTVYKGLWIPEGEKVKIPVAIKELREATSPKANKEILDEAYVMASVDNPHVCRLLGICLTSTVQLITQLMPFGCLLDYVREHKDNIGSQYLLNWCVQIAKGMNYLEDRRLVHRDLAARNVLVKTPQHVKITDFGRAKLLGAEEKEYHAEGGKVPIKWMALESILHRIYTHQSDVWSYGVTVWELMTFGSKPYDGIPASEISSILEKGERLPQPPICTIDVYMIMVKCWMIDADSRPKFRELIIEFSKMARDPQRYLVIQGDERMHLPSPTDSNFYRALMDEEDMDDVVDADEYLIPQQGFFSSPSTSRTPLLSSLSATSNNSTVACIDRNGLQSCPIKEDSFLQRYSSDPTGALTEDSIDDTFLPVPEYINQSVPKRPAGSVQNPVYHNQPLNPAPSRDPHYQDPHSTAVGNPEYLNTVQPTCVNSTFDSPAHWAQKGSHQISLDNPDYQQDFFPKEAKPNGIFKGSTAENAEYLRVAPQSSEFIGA

EGFR mutant L858R Ba/F3 cells, sequence (P00533 whole entry L858R): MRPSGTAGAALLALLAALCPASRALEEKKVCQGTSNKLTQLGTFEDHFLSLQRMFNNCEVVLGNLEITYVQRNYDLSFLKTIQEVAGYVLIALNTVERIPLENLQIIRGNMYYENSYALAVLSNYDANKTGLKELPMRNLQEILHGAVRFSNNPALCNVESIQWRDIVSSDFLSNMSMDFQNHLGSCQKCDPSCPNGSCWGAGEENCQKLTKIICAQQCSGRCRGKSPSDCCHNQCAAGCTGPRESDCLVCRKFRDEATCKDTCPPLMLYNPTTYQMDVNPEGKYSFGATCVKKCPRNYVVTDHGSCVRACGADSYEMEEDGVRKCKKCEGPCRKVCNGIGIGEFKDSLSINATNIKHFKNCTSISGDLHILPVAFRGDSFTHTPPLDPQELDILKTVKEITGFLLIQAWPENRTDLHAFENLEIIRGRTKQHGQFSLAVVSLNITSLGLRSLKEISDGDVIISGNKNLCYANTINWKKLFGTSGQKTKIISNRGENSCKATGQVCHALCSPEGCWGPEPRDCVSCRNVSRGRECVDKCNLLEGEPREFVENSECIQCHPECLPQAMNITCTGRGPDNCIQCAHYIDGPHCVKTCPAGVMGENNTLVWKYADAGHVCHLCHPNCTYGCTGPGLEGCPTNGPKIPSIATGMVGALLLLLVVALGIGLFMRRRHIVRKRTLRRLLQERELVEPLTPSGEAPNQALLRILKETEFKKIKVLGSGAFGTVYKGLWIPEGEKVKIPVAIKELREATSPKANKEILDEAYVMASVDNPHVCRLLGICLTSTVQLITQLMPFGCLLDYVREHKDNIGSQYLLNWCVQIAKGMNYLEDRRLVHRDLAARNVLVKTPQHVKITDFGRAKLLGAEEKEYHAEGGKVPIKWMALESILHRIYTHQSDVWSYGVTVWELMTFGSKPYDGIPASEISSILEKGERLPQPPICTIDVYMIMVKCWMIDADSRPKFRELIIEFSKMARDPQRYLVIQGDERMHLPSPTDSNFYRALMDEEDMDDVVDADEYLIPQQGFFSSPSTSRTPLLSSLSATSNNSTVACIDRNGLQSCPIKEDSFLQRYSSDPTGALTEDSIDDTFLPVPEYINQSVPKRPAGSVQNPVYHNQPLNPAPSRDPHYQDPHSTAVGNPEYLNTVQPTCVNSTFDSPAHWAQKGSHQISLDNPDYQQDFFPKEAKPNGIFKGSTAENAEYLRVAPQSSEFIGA
EGFR L858R/C797S Ba/F3 cells, sequence (P00533 whole entry C797S/L858R, the tested form may be a part): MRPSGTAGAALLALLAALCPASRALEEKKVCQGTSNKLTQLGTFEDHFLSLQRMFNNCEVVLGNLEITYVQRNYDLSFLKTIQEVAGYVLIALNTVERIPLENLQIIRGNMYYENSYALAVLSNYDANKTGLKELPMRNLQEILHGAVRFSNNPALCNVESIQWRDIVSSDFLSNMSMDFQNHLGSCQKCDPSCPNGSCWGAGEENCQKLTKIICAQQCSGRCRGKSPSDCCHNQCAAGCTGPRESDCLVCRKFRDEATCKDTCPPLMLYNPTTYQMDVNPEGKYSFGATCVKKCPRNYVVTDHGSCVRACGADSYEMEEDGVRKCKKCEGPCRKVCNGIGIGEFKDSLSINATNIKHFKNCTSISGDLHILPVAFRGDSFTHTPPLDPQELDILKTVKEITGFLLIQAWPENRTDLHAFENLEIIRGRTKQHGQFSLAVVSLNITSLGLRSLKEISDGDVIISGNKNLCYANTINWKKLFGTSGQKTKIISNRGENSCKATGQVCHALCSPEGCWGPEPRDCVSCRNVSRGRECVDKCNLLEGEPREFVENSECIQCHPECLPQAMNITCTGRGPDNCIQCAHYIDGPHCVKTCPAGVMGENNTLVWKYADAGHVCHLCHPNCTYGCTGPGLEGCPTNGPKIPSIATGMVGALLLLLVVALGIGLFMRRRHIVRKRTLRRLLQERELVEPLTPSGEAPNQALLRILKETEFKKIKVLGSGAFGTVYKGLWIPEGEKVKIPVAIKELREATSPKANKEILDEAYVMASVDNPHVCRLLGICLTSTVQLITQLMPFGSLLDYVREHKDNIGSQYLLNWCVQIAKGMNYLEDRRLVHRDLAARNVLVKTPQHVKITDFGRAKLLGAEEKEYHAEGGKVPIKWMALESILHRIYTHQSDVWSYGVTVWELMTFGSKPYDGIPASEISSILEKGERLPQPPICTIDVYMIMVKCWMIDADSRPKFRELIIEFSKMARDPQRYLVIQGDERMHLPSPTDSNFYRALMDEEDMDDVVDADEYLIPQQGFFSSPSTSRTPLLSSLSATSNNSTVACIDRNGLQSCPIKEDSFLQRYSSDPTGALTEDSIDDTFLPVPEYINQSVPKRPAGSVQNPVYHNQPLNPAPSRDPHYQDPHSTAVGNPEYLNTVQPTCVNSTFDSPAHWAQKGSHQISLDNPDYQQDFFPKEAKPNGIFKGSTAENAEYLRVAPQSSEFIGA
EGFR L858R/T790M, sequence (P00533 25-1210 T790M/L858R): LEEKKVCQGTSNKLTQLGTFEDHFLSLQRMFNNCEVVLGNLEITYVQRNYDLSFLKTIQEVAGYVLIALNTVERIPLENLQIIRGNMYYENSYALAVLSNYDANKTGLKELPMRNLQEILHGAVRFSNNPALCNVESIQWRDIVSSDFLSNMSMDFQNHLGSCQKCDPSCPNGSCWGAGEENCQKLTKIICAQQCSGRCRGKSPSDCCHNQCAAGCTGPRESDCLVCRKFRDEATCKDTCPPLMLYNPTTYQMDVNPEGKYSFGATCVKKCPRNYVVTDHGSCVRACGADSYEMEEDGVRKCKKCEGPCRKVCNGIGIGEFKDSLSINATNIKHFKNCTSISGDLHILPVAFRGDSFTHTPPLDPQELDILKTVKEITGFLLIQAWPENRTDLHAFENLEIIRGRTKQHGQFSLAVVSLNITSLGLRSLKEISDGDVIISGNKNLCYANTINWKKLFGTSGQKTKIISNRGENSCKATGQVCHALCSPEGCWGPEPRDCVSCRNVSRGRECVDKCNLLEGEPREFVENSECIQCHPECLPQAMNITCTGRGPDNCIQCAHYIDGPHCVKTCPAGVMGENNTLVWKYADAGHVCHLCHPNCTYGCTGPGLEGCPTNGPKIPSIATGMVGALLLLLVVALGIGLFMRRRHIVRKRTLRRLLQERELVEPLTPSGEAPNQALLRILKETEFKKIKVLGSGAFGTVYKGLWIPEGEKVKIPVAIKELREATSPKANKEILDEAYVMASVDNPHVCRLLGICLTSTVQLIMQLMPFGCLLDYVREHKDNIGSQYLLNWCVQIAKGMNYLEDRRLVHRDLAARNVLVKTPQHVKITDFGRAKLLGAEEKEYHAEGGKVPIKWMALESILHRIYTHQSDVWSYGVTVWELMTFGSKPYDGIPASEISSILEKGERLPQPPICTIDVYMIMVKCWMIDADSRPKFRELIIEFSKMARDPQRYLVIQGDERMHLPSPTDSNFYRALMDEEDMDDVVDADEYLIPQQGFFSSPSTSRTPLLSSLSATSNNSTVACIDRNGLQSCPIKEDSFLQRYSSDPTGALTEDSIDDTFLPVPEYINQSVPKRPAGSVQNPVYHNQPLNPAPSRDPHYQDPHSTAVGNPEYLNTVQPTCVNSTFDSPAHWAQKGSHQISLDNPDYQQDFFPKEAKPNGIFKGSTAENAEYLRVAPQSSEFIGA

In general, IC50 refers to the concentration that inhibits the measured activity by half. A low value points to inhibition by little substance. Regarding `C=CC(=O)N1CC[C@H](N2Cc3cnc(Nc4cnn(CCO)c4)nc3N(C)C2=O)c2cccc(OC)c21` [Compound 118], the GI50 fell in the range of 500 to 2500 nM in test [1] and 100 to 500 nM in test [3]. Besides, the IC50 in test [2] and in test [4] was above 100 nM throughout.
In the case of `C=CC(=O)N1CC[C@H](N2Cc3cnc(Nc4ccc(CS(=O)(=O)NC)cc4)nc3N(C)C2=O)c2cccc(C)c21` [Compound 145], the GI50 in test [1] and in test [3] was below 100 nM in each case. For the same compound, the IC50 in test [2] was above 1000 nM; in test [4], 1.77 nM.
For `C=CC(=O)N1CCC(N2Cc3cnc(Nc4ccc(N5CCN(C)CC5)cc4)nc3N(C)C2=O)c2cccc(OC)c21` (single isomer, unassigned) [Compound 124], the IC50 in test [2] and in test [4] was above 100 nM throughout. In test [3], the GI50 was at least 2500 nM.
`C=CC(=O)N1CC[C@@H](N2Cc3cnc(Nc4cnn(CCO)c4)nc3N(C)C2=O)c2cccc(OC)c21` (single isomer, unassigned) [Compound 117]: the GI50 in test [1] and in test [3] was at least 2500 nM throughout. Besides, the IC50 in test [2] and in test [4] was above 100 nM each time.
Regarding `C=CC(=O)N1CCC(N2Cc3cnc(Nc4ccc(N5CCN(C)CC5)cc4)nc3N(C)C2=O)c2cccc(O)c21` (single isomer, unassigned) [Compound 156], the GI50 in test [1] and in test [3] was below 100 nM each time. Moreover, the IC50 came out at 1.18 nM in test [2] and 0.18 nM in test [4].
On to `C=CC(=O)N1CC[C@H](N2Cc3cnc(Nc4ccc(N5CCN(C)CC5)cc4)nc3N(C)C2=O)c2cccc(C)c21` [Compound 140, 1-methyl-7-[4-(4-methylpiperazin-1-yl)anilino]-S-[(4S)-8-methyl-1-prop-2-enoyl-3,4-dihydro-2H-quinolin-4-yl]-4H-pyrimido[4,5-d]pyrimidin-2-one], for which the GI50 in test [1] and in test [3] was below 100 nM in each case. In addition, the IC50 is above 1000 nM in test [2] and 0.97 nM in test [4].
As to `C=C(F)C(=O)N1CC[C@H](N2Cc3cnc(Nc4cnn(CCO)c4)nc3N(C)C2=O)c2cccc(OC)c21` (single isomer, unassigned) [Compound 120], the GI50 in test [1] and in test [3] was at least 2500 nM each time. For the same compound, the IC50 in test [2] and in test [4] was above 100 nM throughout.
As for `C=CC(=O)N1CCC(N2Cc3cnc(Nc4ccc(N5CCN(C)CC5)cc4)nc3N(C)C2=O)[C@@H](N)C1` (stereo in doubt) [Compound 149, rel-(3S,4S)—S-(3-amino-1-prop-2-enoyl-4-piperidyl)-1-methyl-7-[4-(4-methylpiperazin-1-yl)anilino]-4H-pyrimido[4,5-d]pyrimidin-2-one], the GI50 in test [1] and in test [3] was at least 2500 nM throughout. Besides, the concentration for half-maximal inhibition (IC50) in test [2] and in test [4] was above 1000 nM in each case.
For the compound `C=CC(=O)N1CCC(n2c(=O)c3cnc(Nc4cnn(CCO)c4)nc3n(C)c2=O)c2ccccc21` (stereo not drawn) [Compound 122, 7-[[1-(2-hydroxyethyl)pyrazol-4-yl]amino]-1-methyl-S-(1-prop-2-enoyl-3,4-dihydro-2H-quinolin-4-yl)pyrimido[4,5-d]pyrimidine-2,4-dione], the GI50 in test [1] lay in the range of 500 to 2500 nM; in test [3], 100 to 500 nM. The IC50 in test [2] and in test [4] was above 100 nM throughout.
For `C=CC(=O)N1CCC2(N3Cc4cnc(Nc5ccc(OCCN6CCCC6)cc5)nc4N(C)C3=O)CC2C1` (stereo not drawn) [Compound 121, 1-methyl-S-(3-prop-2-enoyl-S-azabicyclo[4.1.0]heptan-6-yl)-7-[4-(2-pyrrolidin-1-ylethoxy)anilino]-4H-pyrimido[4,5-d]pyrimidin-2-one], the GI50 in test [1] and in test [3] was at least 2500 nM throughout. For the same compound, the IC50 in test [2] and in test [4] was above 100 nM each time.
As to `C=CC(=O)N1CC[C@H](N2Cc3cnc(Nc4ccc(N5CCN(C)CC5)cc4)nc3N(C)C2=O)[C@H](N)C1` (relative stereo) [Compound 148, rel-(3R,4S)—S-(3-amino-1-prop-2-enoyl-4-piperidyl)-1-methyl-7-[4-(4-methylpiperazin-1-yl)anilino]-4H-pyrimido[4,5-d]pyrimidin-2-one], the GI50 in test [1] and in test [3] was at least 2500 nM each time. The IC50 in test [2] and in test [4] was above 1000 nM each time.
For `C=CC(=O)N1c2ccccc2[C@@H](N2Cc3cnc(Nc4ccc(N5CCN(C)CC5)cc4)nc3N(C)C2=O)C[C@@H]1C` [Compound 135, 1-methyl-7-[4-(4-methylpiperazin-1-yl)anilino]-3-[(2S,4S)-2-methyl-1-prop-2-enoyl-3,4-dihydro-2H-quinolin-4-yl]-4H-pyrimido[4,5-d]pyrimidin-2-one], the GI50 in test [1] and in test [3] was below 100 nM in each case. The IC50 in test [2] is above 1000 nM; in test [4] it was 0.89 nM.
Turning to `[2H]C1(N2Cc3cnc(Nc4ccc(OCCN5CCCC5)cc4)nc3N(C)C2=O)CCN(C(=O)C=C)c2ccccc21` (stereo not shown) [Compound 128], the GI50 in test [1] and in test [3] was below 100 nM each time. Besides, the IC50 is above 700 nM in test [2] and 0.9 nM in test [4].
On to `C=CC(=O)N1CCC(N2Cc3cnc(Nc4ccc(N5CCN(C)CC5)c(-c5cnn(C)c5)c4)nc3N(C)C2=O)c2ccccc21` (stereo not drawn) [Compound 052, 1-methyl-7-[4-(4-methylpiperazin-1-yl)-S-(1-methylpyrazol-4-yl)anilino]-S-(1-prop-2-enoyl-3,4-dihydro-2H-quinolin-4-yl)-4H-pyrimido[4,5-d]pyrimidin-2-one], for which the GI50 in test [1] is 100 to 500 nM; in test [3] it was below 100 nM.
Taken in the same sequence, the figures for `C=CC(=O)N1CCC(N2Cc3cnc(Nc4ccc(N5CCN(C)C6(CC6)C5)cc4)nc3N(C)C2=O)c2ccccc21` (stereo not drawn) [Compound 085, 1-methyl-7-[4-(4-methyl-4,7-diazaspiro[2.5]octan-7-yl)anilino]-S-(1-prop-2-enoyl-3,4-dihydro-2H-quinolin-4-yl)-4H-pyrimido[4,5-d]pyrimidin-2-one] were below 100 nM and below 100 nM.
The like results for `C=C(F)C(=O)N1CC[C@H](N2Cc3cnc(Nc4cnn(CCO)c4)nc3N(c3ccccn3)C2=O)c2ccccc21` [Compound 111] were, in that order, 500 to 2500 nM and 100 to 500 nM.
Taken in the same sequence, the figures for `C=CC(=O)N1CC[C@@H](N2Cc3cnc(Nc4ccc(N5CCN(C)CC5)cc4)nc3N(C)C2=O)c2ccccc21` [Compound 049, 1-methyl-7-[4-(4-methylpiperazin-1-yl)anilino]-S-[(4R)-1-prop-2-enoyl-3,4-dihydro-2H-quinolin-4-yl]-4H-pyrimido[4,5-d]pyrimidin-2-one] were below 100 nM and below 100 nM.
On to `C=CC(=O)N1CCC(N2Cc3cnc(Nc4ccc(N5CCN(C)CC5)cc4)nc3N(C)C2=O)CC1` [Compound 054], for which the GI50 in test [1] and in test [3] was at least 2500 nM throughout.
Consider `C=CC(=O)Nc1cn(C)nc1CN1Cc2cnc(Nc3ccc(N4CCN(C)CC4)cc3)nc2N(C)C1=O` [Compound 046], for which the GI50 in test [1] and in test [3] was at least 2500 nM each time.
Regarding `C=CC(=O)N1CCC(N2Cc3cnc(Nc4ccc(N5CCN(C)CC5)cc4)nc3N(C)C2=O)CC12CCC2` (stereo not drawn) [Compound 089, 1-methyl-7-[4-(4-methylpiperazin-1-yl)anilino]-S-(5-prop-2-enoyl-5-azaspiro[3.5]nonan-8-yl)-4H-pyrimido[4,5-d]pyrimidin-2-one], the GI50 in test [1] and in test [3] was at least 2500 nM in each case.
`C=CC(=O)N1CCC(N2Cc3cnc(Nc4ccc(N5CCN(C)CC5)cc4Cl)nc3N(C)C2=O)c2ccccc21` (stereo not shown) [Compound 077]: the GI50 in test [1] and in test [3] was below 100 nM in each case.
